Test results reported in US20120295935A1, “MIXED AMINAL PHARMACEUTICAL COMPOSITIONS AND USES THEREOF” (priority 2010, published 2012).
Entries after “also recorded” stand apart in the source; their conditions may differ.

Key:
[1] = test system: rat pheochromocytoma cell line; settings: cited from earlier work
C57BL/6 mice = experiment: In vivo injection into intramedullary cavity of femora, BMD and BMC; design: species or system mouse
Method: Responses to Administration of Salubrinal—In vivo responses to salubrinal: In order to evaluate the effects of salubrinal in vivo, salubrinal was injected into an intramedullary cavity of the left femora of C57BL/6 mice and alterations in bone mineral density (BMD) and bone mineral content (BMC) were determined. There were 9 salubrinal treated mice as well as 9 placebo mice (injection of PBS). All mice received 4 injections of either salubrinal or PBS in the left femur, while the right femur was used as contralateral control. In four consecutive injections with a 0.5-inch #26-gauge needle and a Hamilton micro-syringe, the laterial side was used on the 1st and 3rd injetions and the medial side on the 2nd and 4th injections. An injection volume was 20 μl for salubrinal or PBS, and the salubrinal concentration was 50 μM. […] At the time of harvest (2 wks after the 1st injection), an increase in body weight in Salubrinal group (0.80±0.13 g) was higher than that in Placebo group (0.28±0.15 g; p<0.05). Harvested bone samples were analyzed with PIXImus (version 1.4, GE Medical System Lunar) for determination of BMD and BMC.

MC3T3 cells [2] = experiment: Cell proliferation and death; assay type: cell-based
[3] = test system: eIF2α-p (phosphorylated form of eukaryotic initiation factor 2—subunit α); experiment: Western analysis of eIF2α-p in response to salubrinal; assay type: cell-based, mouse; settings: 10 μM or 50 μM, 1 to 5 h and 1 to 2 days
Excerpt: MS3T3 osteoblast-like cells were used to evaluate the level of eIF2α-p (phosphorylated form of eukaryotic initiation factor 2—subunit α) in response to salubrinal.

MLO-A5 osteocyte cells = experiment: mRNA levels by real-time PCR in osteocyte cells; assay type: cell-based; settings: 100 nM-50 μM for 1-24 h
Method: (§1) Responses to Administration of Salubrinal—In vitro responses to salubrinal: In order to evaluate the effects of salubrinal, MC3T3 E1 osteoblast-like cells and MLO-A5 osteocyte cells (Barragan-Adjemian, C., et al., “Mechanism by which MLO-A5 late osteoblasts/early osteocytes mineralize in culture: similarities with mineralization of lamellar bone,” Calcif. Tissue Int. 79:340-353 (2006)) were incubated with salubrinal at 100 nM-50 μM for 1-24 h. The mRNA levels of the selected genes, TF4, ATF3, Osteocalcin (OCN), and CHOP, were determined by real-time PCR. […] In MC3T3 cells, for instance, the Osteocalcin mRNA level, which is regulated by ATF4 and Runx2 (Xiao et al. 2005), was elevated 11.8±0.2 fold at 10 μM salubrinal in 24 h.

C57/BL/6 female mice = experiment: Mouse tibia bone formation, ankle loading plus local salubrinal; assay type: in vivo
Method: Mouse tibia-bone formation: Twenty C57/BL/6 female mice (˜8 weeks, body weight ˜18 g) were employed to examine the combined effects of ankle loading and local administration of salubrinal to the tibia (Zhang P, et al., Salubrinal stimulates anabolic responses in mouse femora, 55th Ann Meeting ORS (2009)). Local administration was targeted into a bone marrow cavity from the proximal tibia. A total volume of 20 μl PBS was injected to the left hindlimb with or without 0.025 mg/kg (100 μM) salubrinal (Calbiochem) using a micro-syringe with a 0.5-inch #26-gauge needle (Worsham D N, et al., In vivo gene transfer into adult stem cells in unconditioned mice by in situ delivery of a lentiviral vector, Mol. Ther. 14:514-24 (2006); Zhu Y, et al., eIF-2a protects brainstem motoneurons in a murine model of sleep apnea, J. Neurosci. 28:2168-78 (2008)). In examination of the combined effects of mechanical loading and salubrinal administration, ankle loading was given for 5 consecutive days after administration of salubrinal on each day. The mouse was placed in an anesthetic induction chamber to cause sedation and then mask-anesthetized using 1.5% isoflurane. With a custom-made piezoelectric mechanical loader, loads were applied to the left ankle for 5 min/day in the lateral-medial direction. The loading frequency was 5 Hz, and the peak-to-peak force was 0.5 N (FIG. 12). The right hindlimb was used as a sham-loaded control (Zhang P, et al., Joint loading-driven bone formation and signaling pathways predicted from genome-wide expression profiles, Bone 44:989-998 (2009)).

MC3T3 cells [4] = experiment: Mineralization, von-Kossa staining; assay type: cell-based, mouse; settings: 10 days
Method: To evaluate the effects of salubrinal on mineralization, MC3T3 cells were grown in the presence of 50 μg/ml of ascorbic acid and 5 mM β-glycerophosphate for 10 days with and without 10 or 50 μM salubrinal, and von-Kossa staining was conducted. Cells were fixed in 10% formalin and incubated in 5% silver nitrate for 30 min. After rinsing in PBS, staining was developed in 5% sodium carbonate for 2 min. They were counterstained with 0.1% nuclear fast red solution. […] In the field-of-view with 10× objective lens, the mean number of positive dots was 3.2-fold (10 μM salubrinal) and 2.9-fold (50 μM salubrinal) more than that for control cells without salubrinal treatment (FIG. 9).

[5] = test system: brainstem motoneurons in mice; settings: hypoxia and reoxygenation events; cited from earlier work
mouse hippocampus = settings: direct injection; cited from earlier work
MC3T3 cells [6] = experiment: mRNA expression levels by real-time PCR; assay type: cell-based, mouse
Method: Responses to Administration of Thapsigargin—Upregulation of transcription factors linked to bone formation as well as PERK: The effects of 10 nM thapsigargin on mRNA expression levels of ISR-linked genes (ATF4, ATF3, and CHOP) as well as genes involved in bone remodeling (Runx2, Osterix, and Rank1), were examined (FIG. 5). […] Out of 4 transcription factors (ATF4, ATF3, Runx2, and Osterix), the level of ATF4 mRNA was elevated 2-4 fold throughout the treatments. […] The mRNA level of type 1 collagen was elevated 5 h and 10 h for T1h (1 h exposure at 10 nM).
as §1

[7] = ankle loading and salubrinal injection
[8] = tibia, 0.025 mg/kg (100 μM) plus ankle loading, 5 days

Structure (SMILES): O=C(/C=C/c1ccccc1)NC(NC(=S)Nc1cccc2cccnc12)C(Cl)(Cl)Cl (stereo not drawn) [salubrinal]
- protection from ER stress-induced apoptosis [1]: protect
- BMC vs contralateral control (C57BL/6 mice; femur, 20 μl 50 μM injection): trend to elevate; also recorded: Increased
- BMD vs contralateral control (C57BL/6 mice; femur, 20 μl 50 μM injection): Increased
- BMD (C57BL/6 mice; injected femur, mean±s.e.m.): 0.0456±0.0011 g/cm^2
- cell death (MC3T3 cells [2]; 50 μM, no statistical difference (p>0.05)): reduced cell death
- cell proliferation or death (MC3T3 cells [2]; 10 or 50 μM for 24 h): did not alter
- phosphorylated level of eIF2α [3]: Elevated
- mRNA levels of the selected genes (MLO-A5 osteocyte cells): did not show any significant alterations
- relative increase in BMC vs ankle loading alone (C57/BL/6 female mice; [7]): 1.5 fold
- relative increase in BMD vs ankle loading alone (C57/BL/6 female mice; [7]): 2.3 fold
- BMC (C57/BL/6 female mice; [8]): 0.0154 ± 0.0004 g
- BMD (C57/BL/6 female mice; [8]): 0.0443±0.0011 g/cm^2
- mean number of von-Kossa positive dots vs control cells (MC3T3 cells [4]; 10 μM): 3.2 fold
- mean number of von-Kossa positive dots vs control cells (MC3T3 cells [4]; 50 μM): 2.9 fold
- motoneuronal injury [5]: suppressed
- ATF4-dependent long-term synaptic plasticity and memory (mouse hippocampus): modulated
- Osteocalcin mRNA level (MC3T3 cells [6]; 10 μM in 24 h): 11.8±0.2 fold
- mRNA levels of the selected genes (TF4, ATF3, Osteocalcin, CHOP) (MC3T3 cells [6]; MC3T3 cells, 100 nM-50 μM for 1-24 h): upregulated
